Legend:
Assay in all cases: Sphere-forming ability of cultured cancer cell lines (Test Example 10)
Format in all cases: cell-based
A549 = settings: Homo sapiens, 96 h; A549 lung cancer cell line, 4 days
Description: (§1) The colon cancer cell lines SW480, DLD1, HCT15, HT29, SW948, LS174T, LS411N, SW620, LoVo, HCT116, Colo205, and Hs698T, the pancreatic cancer cell lines MiaPaca2, HPAFII, Capan2, and Panc1, the head and neck cancer cell line FaDu, the breast cancer cell lines HCC1954 and T47D, the bladder cancer cell line SW780, the liver cancer cell line HepG2, the neuroblastoma cell lines U87MG and U251, the lung cancer cell lines H460, H1437, and A549, the prostate cancer cell lines DU145 and PC3, the soft tissue tumor cell line HT1080, the testicular cancer cell line NTERA2, and the ovarian cancer cell line SKOV3 was suspended in the sphere formation medium (DMEM-F12 medium of Test Example 3 was used), and seeded in a 384-well plate with Ultra-Low Attachment surface (Corning) in an amount of 5×10^3-10×10^3 cells/well. The compound of Example 24 was then added into each well to adjust the final concentration to 10-10000 nmol/L. The plate was cultured at 37° C. and 5% carbon dioxide in an incubator for 4 days. After the culture, CellTiterGlo (Promega) was added into all of the wells, and the plate was allowed to stand at room temperature for 10 minutes to measure the intensity of luminescence of each well. The concentrations of each test compound for 50% inhibition of cell proliferation to the cell lines (Sphere IC50 value; μmol/L) was calculated from the measured intensity of luminescence. When each gene mutation in Table is reported, the mutation is represented by “+” (gene mutation information is cited from the ATCC website (https://www.atcc.org/en/Products/Cells_and_Microorganisms/Cell_Lines/Cell_lines_by_genetic_mutation.aspx), Cancer Cell Line Encyclopedia (https://portals.broadinstitute.org/ccle_legacy/home), Proc. Natl. Acad. Sci. USA 94 (1997) 10330-10334).

COLO 205 = settings: Homo sapiens, 96 h; COLO 205 colon cancer cell line, 4 days
Description: as §1

Capan-2 = settings: Homo sapiens, 96 h; Capan-2 pancreatic cancer cell line, 4 days
Description: as §1

DLD-1 = settings: Homo sapiens, 96 h; DLD-1 colon cancer cell line, 4 days
Description: as §1

DU 145 = settings: Homo sapiens, 96 h; DU 145 prostate cancer cell line, 4 days
Description: as §1

FaDu = settings: Homo sapiens, 96 h; FaDu head and neck cancer cell line, 4 days
Description: as §1

HCT 116 = settings: Homo sapiens, 96 h; HCT 116 colon cancer cell line, 4 days
Description: as §1

HCT-15 = settings: Homo sapiens, 96 h; HCT-15 colon cancer cell line, 4 days
Description: as §1

HPAF-II = settings: Homo sapiens, 96 h; HPAF-II pancreatic cancer cell line, 4 days
Description: as §1

HT-1080 = settings: Homo sapiens, 96 h; HT-1080 soft tissue tumor cell line, 4 days
Description: as §1

HT-29 = settings: Homo sapiens, 96 h; HT-29 colon cancer cell line, 4 days
Description: as §1

Hep G2 = settings: Homo sapiens, HepG2, 96 h; Hep G2 liver cancer cell line, 4 days
Description: as §1

Hs 698.T = settings: 96 h; Hs 698.T colon cancer cell line, 4 days
Description: as §1

LS411N = settings: Homo sapiens, LS-411N, 96 h; LS411N colon cancer cell line, 4 days
Description: as §1

LoVo = settings: Homo sapiens, 96 h; LoVo colon cancer cell line, 4 days
Description: as §1

MIA PaCa-2 = settings: Homo sapiens, 96 h; MIA PaCa-2 pancreatic cancer cell line, 4 days
Description: as §1

NCI-H460 = settings: Homo sapiens, 96 h; NCI-H460 lung cancer cell line, 4 days
Description: as §1

NTERA-2 = settings: NTERA2, 96 h; NTERA-2 testicular cancer cell line, 4 days
Description: as §1

Panc-1 = settings: Homo sapiens, 96 h; Panc-1 pancreatic cancer cell line, 4 days
Description: as §1

SK-OV-3 = settings: Homo sapiens, 96 h; SK-OV-3 ovarian cancer cell line, 4 days
Description: as §1

SW 780 = settings: Homo sapiens, SW780, 96 h; SW 780 bladder cancer cell line, 4 days
Description: as §1

SW480 = settings: Homo sapiens, 96 h; SW480 colon cancer cell line, 4 days
Description: as §1

SW620 = settings: Homo sapiens, SW-620, 96 h; SW620 colon cancer cell line, 4 days
Description: as §1

SW948 = settings: Homo sapiens, 96 h; SW948 colon cancer cell line, 4 days
Description: as §1

T-47D = settings: Homo sapiens, T47D, 96 h; T-47D breast cancer cell line, 4 days
Description: as §1

U-251 = settings: Homo sapiens, 96 h; U-251 neuroblastoma cell line, 4 days
Description: as §1

U-87 MG = settings: Homo sapiens, 96 h; U-87 MG glioblastoma cell line, 4 days
Description: as §1

- IC50 (A549): > 10 µM
- IC50 (COLO 205): 142 nM
- IC50 (Capan-2): > 10 µM
- IC50 (DLD-1): 7 nM
- IC50 (DU 145): > 10 µM
- IC50 (FaDu): 9 nM
- IC50 (HCT 116): 91 nM
- IC50 (HCT-15): 8 nM
- IC50 (HPAF-II): 764 nM
- IC50 (HT-1080): > 10 µM
- IC50 (HT-29): 9 nM
- IC50 (Hep G2): 72 nM
- IC50 (Hs 698.T): > 10 µM
- IC50 (LS411N): 19 nM
- IC50 (LoVo): 28 nM
- IC50 (MIA PaCa-2): 8 nM
- IC50 (NCI-H460): 883 nM
- IC50 (NTERA-2): > 10 µM
- IC50 (Panc-1): > 10 µM
- IC50 (SK-OV-3): > 10 µM
- IC50 (SW 780): 56 nM
- IC50 (SW480): 4 nM
- IC50 (SW620): 27 nM
- IC50 (SW948): 9 nM
- IC50 (T-47D): 46 nM
- IC50 (U-251): > 10 µM
- IC50 (U-87 MG): 89 nM
Compound: O=C(Nc1cn(Cc2cc(F)c(F)c(F)c2)cn1)c1cnc(CO)c(C(F)F)c1 [Example 24, 5-(difluoromethyl)-6-(hydroxymethyl)-N-[1-(3,4,5-trifluorobenzyl)-1H-imidazol-4-yl]nicotinamide]

— patent US20200268728A1, “DRUG TARGETING CANCER STEM CELL” (Sumitomo Dainippon Pharma Co., Ltd., priority 2016, published 2020)
